The values that follow come from patent US20130023585A1, “Neuraminidase Inhibitors” (TSRL, INC., priority 2010, published 2013).

The conditions of data set [1]: cited from earlier work.
The test system of data set [2] is Influenza A/NWS/33 (H1N1). Type of data set: in vivo, BALB/c mice. The conditions noted are these: for Survivors/Total: twice a day for 5 days, observed 21 days.
The conditions of data set [3]: mouse, in vivo, 10 mg/kg/day.
The next data set concerns Brisbane/10/2007 (H3N2). Put plainly: microbe, parasite or virus in culture. Type of data set: cell-based. The settings on record: Influenza A virus, read-out: 50% effective concentration (EC50).
Another data set relates to Sichuan/379/99. The data set is described as follows: microbe, parasite or virus in culture. It is filed as cell-based. The settings on record: unidentified influenza virus, read-out: 50% effective concentration (EC50).
In a further data set the test system is influenza virus. The settings on record: versus oseltamivir carboxylate; cited from earlier work.
The next data set in a line: in vivo. The conditions noted are these: mouse.
Data set [4] has as its system California/04/2009 (H1N1). Put plainly: microbe, parasite or virus in culture. It is filed as cell-based. The settings on record: Influenza A virus, read-out: 50% effective concentration (EC50).
The test system of data set [5] is Flu A Vietnam/1203/2004 (H5N1) × A/Ann Arbor/6/60 (H1N1 core genes). The data set is described as follows: microbe, parasite or virus in culture. Type of data set: cell-based. The settings on record: Influenza A virus, MDCK, read-out: 50% effective concentration (EC50).
The subject of another data set is Victoria/3/75 (H3N2). Put plainly: microbe, parasite or virus in culture. It is filed as cell-based. The conditions noted are these: Influenza A virus, read-out: 50% effective concentration (EC50).
Data set [6] concerns Solomon Islands/03/2006 (H1N1). The data set is described as follows: microbe, parasite or virus in culture. The conditions noted are these: Influenza A virus, read-out: 50% effective concentration (EC50). Type of data set: cell-based.
For data set [7], the system named is Flu A Duck/MN/1525/81 (H5N1). Put plainly: microbe, parasite or virus in culture. The settings on record: Influenza A virus, H5N1, MDCK, read-out: 50% effective concentration (EC50). It is filed as cell-based.
A further data set deals with NWS/33 (H1N1). Put plainly: microbe, parasite or virus in culture. Type of data set: cell-based. The settings on record: Influenza A virus, read-out: 50% effective concentration (EC50).
For a further data set, the system named is Flu B Florida/4/2006. Put plainly: microbe, parasite or virus in culture. It is filed as cell-based. The conditions noted are these: unidentified influenza virus, read-out: 50% effective concentration (EC50).
Another data set concerns Brisbane/59/2007 (H1N1). Put plainly: microbe, parasite or virus in culture. Type of data set: cell-based. The settings on record: Influenza A virus, read-out: 50% effective concentration (EC50).
For data set [8] the following is noted: for Plasma concentration of Zanamivir: iv dose 1 mg/kg.

Molecules are shown by their SMILES. Like-named read-outs stand apart in the source and are kept apart here. Marks after values point to notes of the source that are not given here.

With `CCOC(=O)C1=C[C@@H](OC(CC)CC)[C@H](NC(C)=O)[C@@H](NC(=N)N)C1`, in data set [1] (oral), the oral bioavailability entry is on record as “approximately 2%”.
As a reminder, the Cmax is the peak of the concentration-time curve. Usually Tmax stands for the time from dosing to the highest level. Where the note is “mouse, in vivo, iv, 1 mg/kg”, `CCC(CC)OC1C=C(C(=O)OC(OC(=O)C(N)C(C)C)c2ccccc2)CC(NC(=N)N)C1NC(C)=O` (mixture of isomers) [GOC-Benzyl-Val] gave an AUC of 867 ± 110 ng·h/mL, a CL of 31 mL/h, a T1/2 of 1.15 h and a Vz of 50.8 mL. Besides, under “mouse, in vivo, po, 10 mg/kg”, the AUC was determined as 1171 ± 357 ng·h/mL, the CL turned out to be 195 mL/h, the peak concentration (Cmax) stood at 192 ± 48 ng/mL and the T1/2 came out at 7.14 h. Further, for the setting “mouse, in vivo, po, 10 mg/kg”, the Tmax stood at 1.0 ± 0.0 h and the Vz was determined as 2014 mL.
Take `CCC(CC)OC1C=C(C(=O)OC(C)OC(=O)C(N)C(C)C)CC(NC(=N)N)C1NC(C)=O` (mixture of isomers) [GOC-Me-Val]: in [2] (0.1 mg/kg/day), the “MDD ± SD (mean day of death of mice that died prior to day 21)” value (“MDD ± SD” below) was determined as 10.0 ± 1.3 and the “protective from the lethal infection” value is “inactive”. Besides, the Survivors/Total in [2] (0.1 mg/kg/day per oral) is given as 0/10. Moreover, in [2] (1 mg/kg/day), the “MDD ± SD” value is reported as 10.7 ± 0.6, the “protective from the lethal infection” value was 70% and the “weight loss during the infection (FIG. 2)” value is reported as “Severe weight loss”. Besides, the Survivors/Total in [2] (1 mg/kg/day per oral) is listed as 7/10**. The “protective from the lethal infection” value in [2] (10 mg/kg/day) was 100%. In addition, the Survivors/Total in [2] (10 mg/kg/day per oral) is given as 10/10**. In addition, the T1/2 (mice, IV, 1 mg/kg) stood at 1.05 h. For the setting “mouse, in vivo, iv, 1 mg/kg”, this compound gave an AUC of 730 ± 60 ng·h/mL, a CL of 39 mL/h and a Vz of 59.5 mL. Under “mouse, in vivo, po, 10 mg/kg”, this compound came in with an AUC of 3205 ± 577 ng·h/mL, a CL of 140 mL/h, a Cmax of 561 ± 235 ng/mL and a Vz of 276 mL. Moreover, in data set [3], the “Mean Weight Change Day 5” value is −0.2 grams; the “Mean Weight Change Day 5, % of initial body weight (in parenthesis)” value (“Mean Weight Change Day 5, %” for short) is listed as −0.5%; the “Mean Weight Change, day 7” value is given as −0.3 grams; the “Mean Weight Change, day 7, % of initial body weight (in parenthesis)” value (“Mean Weight Change, day 7, %” below) is on record as −1.6%. In addition, in [3], the Survivors/Total is 5/5.
Broadly, the bioavailability is the share of a dose that reaches the circulation, judged against a reference dose that is usually intravenous. Lower therefore signals poor availability. As a reminder, the Vd is a proportionality between amount in the body and measured concentration, not a real space. Usually clearance stands for a measure of how efficiently the substance is removed, as volume per time. Low readings indicate inefficient removal, high ones efficient removal. One may read the half-life as the time in which the quantity being followed falls by half. A higher half-life goes with slow loss. In the case of `CCC(CC)O[C@@H]1C=C(C(=O)O)C[C@H](NC(=N)N)[C@H]1NC(C)=O` [GOC, 4-guanidinio oseltamivir carboxylate], the EC50 was more than 320 nM in the data set with Brisbane/10/2007 (H3N2) (H3N2, MDCK cells, 3 to 4 days); more than 3.2 µM in the data set on Sichuan/379/99 (MDCK cells, 3 to 4 days); 16 nM in [4] (H1N1, MDCK cells, 3 to 4 days); 0.28 nM in [5]; 38 nM in the data set on Victoria/3/75 (H3N2) (H3N2, MDCK cells, 3 to 4 days); 4.2 nM in [6] (H1N1, MDCK cells, 3 to 4 days). The EC50 was 1.2 nM in data set [7]; less than 32 nM with NWS/33 (H1N1) (H1N1, MDCK cells, 3 to 4 days); 460 nM in the data set with Flu B Florida/4/2006 (MDCK cells, 3 to 4 days); 4 nM with Brisbane/59/2007 (H1N1) (H1N1, MDCK cells, 3 to 4 days). In addition, the “times more potent in tissue culture of influenza virus replication” value in the data set on influenza virus is on record as 10 times. Also, the oral bioavailability in data set [1] (oral) is reported as approximately 4.0%. In the data set “in vivo” (10 mg/kg, BA (bioavailability of GOC)), this compound showed a bioavailability of 4.3%. Moreover, the Vd in the data set “in vivo” (iv, 1 mg/kg) was 0.0678 L. Also, the clearance in “in vivo” (iv, 1 mg/kg) is 0.883 mL/min. The same compound registered an AUC in the data set “in vivo” (iv, 1 mg/kg, mice, GOC in plasma) of 541 ± 229 ng·h/mL; an AUC in the data set “in vivo” (po, 10 mg/kg) of 232 ± 43 ng·h/mL; an AUC (mouse, in vivo, po, 10 mg/kg) of 327 ± 98 ng·h/mL. Also, the half-life in “in vivo” (iv, 1 mg/kg, T1/2, mice) was 52.8 min; in the data set “in vivo” (po, 10 mg/kg, T1/2), 72.6 min. The Cmax in the data set “in vivo” (po, 10 mg/kg, Cmax) was 43 ± 29 ng/mL and the Cmax (mouse, in vivo, po, 10 mg/kg) amounted to 73 ± 30 ng/mL. For the same compound, the Tmax was determined as 3 ± 1.2 h in the data set “in vivo” (po, 10 mg/kg) and 1.3 ± 1 h in “in vivo” (po, 10 mg/kg, mice, PO (fasted), GOC in plasma). Also, the “MDD ± SD” value in [2] (0.1 mg/kg/day) was 9.0 ± 1.0; in data set [2] (1 mg/kg/day), 9.8 ± 1.2. Moreover, the “protective from the lethal infection” value is on record as “not active” in data set [2] (0.1 mg/kg/day), “not active” in data set [2] (1 mg/kg/day) and 100% in data set [2] (10 mg/kg/day). The Survivors/Total in [2] (0.1 mg/kg/day per oral) was 0/10; in data set [2] (1 mg/kg/day per oral), 1/10; in data set [2] (10 mg/kg/day per oral), 10/10**. In data set [2] (10 mg/kg/day), the “weight loss during the infection (FIG. 2)” value is “Some weight loss”. Further, where the note is “mouse, in vivo, po, 10 mg/kg”, the T1/2 was 1.65 h. Moreover, the “Mean Weight Change Day 5” value in [3] was −0.3 grams. In [3], the “Mean Weight Change Day 5, %” value is −2.1%. Further, in data set [3], the “Mean Weight Change, day 7” value was −0.2 grams. The “Mean Weight Change, day 7, %” value in data set [3] was −1.0%.
As for `CCC(CC)O[C@@H]1C=C(C(=O)O)C[C@H](N)[C@H]1NC(C)=O` [Oseltamivir Carboxylate, Oseltamivir carboxylate], the EC50 was more than 320 nM in the data set with Brisbane/10/2007 (H3N2) (H3N2, MDCK); more than 3.2 µM in the data set on Sichuan/379/99 (MDCK); 300 nM in data set [4] (H1N1, MDCK); 2.8 nM in data set [5]; more than 320 nM in the data set with Victoria/3/75 (H3N2) (H3N2, MDCK); more than 320 nM in data set [6] (H1N1, MDCK). The EC50 is 150 nM in [7]; 580 nM in the data set with NWS/33 (H1N1) (H1N1, MDCK); more than 3200 nM in the data set on Flu B Florida/4/2006 (MDCK); more than 320 nM in the data set with Brisbane/59/2007 (H1N1) (H1N1, MDCK). For the same compound, the oral bioavailability in data set [1] (oral) was approximately 4.0%.
On to `CCOC(=O)C1=C[C@@H](OC(CC)CC)[C@H](NC(C)=O)[C@@H](N)C1` [Oseltamivir], for which, in data set [2] (0.1 mg/kg/day), the “MDD ± SD” value is listed as 9.7 ± 1.6 and the “protective from the lethal infection” value is reported as “ineffective”. The Survivors/Total in data set [2] (0.1 mg/kg/day per oral) is 0/10. In [2] (1 mg/kg/day), the “protective from the lethal infection” value was determined as 100% and the “weight loss during the infection (FIG. 2)” value is listed as “lost minimal weight”. Moreover, the Survivors/Total in data set [2] (1 mg/kg/day per oral) is 10/10**. Moreover, the “protective from the lethal infection” value in data set [2] (10 mg/kg/day) is on record as 100%. Also, the Survivors/Total in data set [2] (10 mg/kg/day per oral) was 10/10**. The Survivors/Total in [3] (BALB/c) is on record as 5/5. In data set [3], the “Mean Weight Change Day 5” value is listed as −0.3 grams; the “Mean Weight Change Day 5, %” value is −1.6%; the “Mean Weight Change, day 7” value is −0.1 grams; the “Mean Weight Change, day 7, %” value is listed as −0.5%.
Turning to `CC(=O)N[C@H]1[C@H]([C@H](O)[C@H](O)CO)OC(C(=O)OC(OC(=O)[C@H](N)C(C)C)C(C)C)=C[C@@H]1NC(=N)N` (stereo partly drawn) [ZAN-Isp-Val], in data set [8] (Oral, fasted mice, Zanamivir in plasma), the AUC is listed as 2177 (ng/ml) × hr. Also, the “absorption after oral dosing” value in data set [8] (fasted animals) is “completely absorbed”.
In the case of `CC(=O)N[C@H]1[C@H]([C@H](O)[C@H](O)CO)OC(C(=O)O)=C[C@@H]1N=C(N)N` [Zanamivir], the oral bioavailability result in [1] (in vivo, po) is “about 2%”. Further, the “Plasma concentration of Zanamivir” value in data set [8] (0.03 hours) was 4018.3 ng/mL; in data set [8] (0.08 hours), 2487.5 ng/mL; in data set [8] (0.25 hours), 633.8 ng/mL; in data set [8] (0.50 hours) it was 212.0 ng/mL; in [8] (1.00 hours), 78.6 ng/mL; in data set [8] (2.00 hours) it was 14.0 ng/mL. Besides, the AUC in [8] (mouse, in vivo, iv, 1 mg/kg) was 202.4 (ng/ml) × hr.
